Source: patent US9012655B2, “Antimicrobial/adjuvant compounds and methods” (Denouamed, Inc., priority 2011, dated 2015)
≈ marks a conversion by molar mass, not a printed value.

Columns and labels:
Assay in all cases: MIC panel of challenge pathogens (CLSI)
Type in all cases: cell-based
[1] = system: Bacillus cereus NCTC6349; conditions: Bacillus cereus
Procedure, shortened: (§1)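 Broth microdilution per CLSI guidelines. Final inoculum 2-8×10^5 CFU/ml, compounds serially two-fold diluted from 128 mg/L top concentration. Incubated in the dark at 30-37° C for 24-48 h, aerobic or anaerobic as appropriate. MIC read visually as 100% inhibition endpoint; MIC50 and MIC80 also reported.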

[2] = system: Enterococcus faecalis ATCC29212; conditions: Enterococcus faecalis
Procedure, shortened: as §1

[3] = system: Enterococcus faecalis ATCC51299; conditions: Enterococcus faecalis
Procedure, shortened: as §1

[4] = system: Enterococcus faecium ATCC700221; conditions: Enterococcus faecium
Procedure, shortened: as §1

[5] = system: Staphylococcus aureus ATCC43300; conditions: Staphylococcus aureus
Procedure, shortened: as §1

[6] = system: Staphylococcus aureus AUR131 007035; conditions: Staphylococcus aureus
Procedure, shortened: as §1

[7] = system: Staphylococcus aureus AUR58 7005; conditions: Staphylococcus aureus
Procedure, shortened: as §1

[8] = system: Staphylococcus aureus AUR59 7005; conditions: Staphylococcus aureus
Procedure, shortened: as §1

[9] = system: Staphylococcus aureus AUR60 7005; conditions: Staphylococcus aureus
Procedure, shortened: as §1

[10] = system: Staphylococcus aureus EUP MRSA002; conditions: Staphylococcus aureus
Procedure, shortened: as §1

[11] = system: Staphylococcus aureus EUP MRSA004; conditions: Staphylococcus aureus
Procedure, shortened: as §1

[12] = system: Staphylococcus aureus EUP SAU040; conditions: Staphylococcus aureus
Procedure, shortened: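 Broth microdilution per CLSI guidelines; final inoculum 2-8×10^5 CFU/ml in the appropriate broth. Compounds serially diluted two-fold from a top assay concentration of 128 mg/L. Plates incubated in the dark at 30-37° C for 24-48 hours, read visually; MIC taken as 100% inhibition endpoint.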

[13] = system: Staphylococcus aureus NRS1 (ATCC700699); conditions: Staphylococcus aureus
Procedure, shortened: as §1

[14] = system: Staphylococcus aureus NRS2 (ATCC700698); conditions: Staphylococcus aureus
Procedure, shortened: as §1

[15] = system: Staphylococcus aureus NRS382; conditions: Staphylococcus aureus
Procedure, shortened: as §1

[16] = system: Staphylococcus aureus NRS383; conditions: Staphylococcus aureus
Procedure, shortened: as §1

[17] = system: Staphylococcus aureus NRS384; conditions: Staphylococcus aureus
Procedure, shortened: as §1

[18] = system: Staphylococcus epidermidis NRS122; conditions: Staphylococcus epidermidis
Procedure, shortened: as §1

[19] = system: Staphylococcus epidermidis NRS7; conditions: Staphylococcus epidermidis
Procedure, shortened: as §1

With `CN[C@H](CC(C)C)C(=O)N[C@H]1C(=O)N[C@@H](CC(N)=O)C(=O)N[C@H]2C(=O)N[C@H]3C(=O)N[C@H](C(=O)N[C@H](C(=O)O)c4cc(O)cc(O)c4-c4cc3ccc4O)[C@H](O)c3ccc(c(Cl)c3)Oc3cc2cc(c3O[C@@H]2O[C@H](CO)[C@@H](O)[C@H](O)[C@H]2O[C@H]2C[C@](C)(N)[C@H](O)[C@H](C)O2)Oc2ccc(cc2Cl)[C@H]1O` [Vancomycin, reference compound] the MIC ([1]; NCTC6349, read-out: 100% inhibition) was 2 µg/mL (≈ 1.38 µM), the MIC50 ([1]; NCTC6349, read-out: MIC50 (50%)) was 1 µg/mL (≈ 0.69 µM) and the MIC80 ([1]; NCTC6349, read-out: MIC80 (80%)) was 2 µg/mL (≈ 1.38 µM). For the same compound, the MIC ([2]; ATCC29212, read-out: 100% inhibition) was 4 µg/mL (≈ 2.76 µM), the MIC50 ([2]; ATCC29212, read-out: MIC50 (50%)) was 4 µg/mL (≈ 2.76 µM) and the MIC80 ([2]; ATCC29212, read-out: MIC80 (80%)) was 4 µg/mL (≈ 2.76 µM). For the same compound, the MIC ([3]; ATCC51299, read-out: 100% inhibition) was > 16 µg/mL, the MIC50 ([3]; ATCC51299, read-out: MIC50 (50%)) was > 16 µg/mL and the MIC80 ([3]; ATCC51299, read-out: MIC80 (80%)) was > 16 µg/mL. For the same compound, the MIC ([4]; ATCC700221, read-out: 100% inhibition) was > 16 µg/mL, the MIC50 ([4]; ATCC700221, read-out: MIC50 (50%)) was > 16 µg/mL and the MIC80 ([4]; ATCC700221, read-out: MIC80 (80%)) was > 16 µg/mL. For the same compound, the MIC ([5]; ATCC43300, read-out: 100% inhibition) was 0.5 µg/mL (≈ 0.345 µM), the MIC50 ([5]; ATCC43300, read-out: MIC50 (50%)) was 0.5 µg/mL (≈ 0.345 µM) and the MIC80 ([5]; ATCC43300, read-out: MIC80 (80%)) was 0.5 µg/mL (≈ 0.345 µM). The MIC ([6]; AUR131007035, read-out: 100% inhibition) was 0.5 µg/mL (≈ 0.345 µM), the MIC50 ([6]; AUR131007035, read-out: MIC50 (50%)) was 0.5 µg/mL (≈ 0.345 µM) and the MIC80 ([6]; AUR131007035, read-out: MIC80 (80%)) was 0.5 µg/mL (≈ 0.345 µM). For the same compound, the MIC ([7]; AUR587005, read-out: 100% inhibition) was 1 µg/mL (≈ 0.69 µM), the MIC50 ([7]; AUR587005, read-out: MIC50 (50%)) was 1 µg/mL (≈ 0.69 µM) and the MIC80 ([7]; AUR587005, read-out: MIC80 (80%)) was 1 µg/mL (≈ 0.69 µM). For the same compound, the MIC ([8]; AUR597005, read-out: 100% inhibition) was 1 µg/mL (≈ 0.69 µM), the MIC50 ([8]; AUR597005, read-out: MIC50 (50%)) was 0.5 µg/mL (≈ 0.345 µM) and the MIC80 ([8]; AUR597005, read-out: MIC80 (80%)) was 0.5 µg/mL (≈ 0.345 µM). The MIC ([9]; AUR607005, read-out: 100% inhibition) was 1 µg/mL (≈ 0.69 µM), the MIC50 ([9]; AUR607005, read-out: MIC50 (50%)) was 0.5 µg/mL (≈ 0.345 µM) and the MIC80 ([9]; AUR607005, read-out: MIC80 (80%)) was 1 µg/mL (≈ 0.69 µM). For the same compound, the MIC ([10]; EUPMRSA002, read-out: 100% inhibition) was 0.5 µg/mL (≈ 0.345 µM), the MIC50 ([10]; EUPMRSA002, read-out: MIC50 (50%)) was 0.5 µg/mL (≈ 0.345 µM) and the MIC80 ([10]; EUPMRSA002, read-out: MIC80 (80%)) was 0.5 µg/mL (≈ 0.345 µM). It also gave an MIC ([11]; EUPMRSA004, read-out: 100% inhibition) of 0.5 µg/mL (≈ 0.345 µM), an MIC50 ([11]; EUPMRSA004, read-out: MIC50 (50%)) of 0.5 µg/mL (≈ 0.345 µM) and an MIC80 ([11]; EUPMRSA004, read-out: MIC80 (80%)) of 0.5 µg/mL (≈ 0.345 µM). For the same compound, the MIC ([12]; EUPSAU040, read-out: 100% inhibition) was 1 µg/mL (≈ 0.69 µM), the MIC50 ([12]; EUPSAU040, read-out: MIC50 (50%)) was 1 µg/mL (≈ 0.69 µM) and the MIC80 ([12]; EUPSAU040, read-out: MIC80 (80%)) was 1 µg/mL (≈ 0.69 µM). The MIC ([13]; read-out: 100% inhibition) was 4 µg/mL (≈ 2.76 µM), the MIC50 ([13]; read-out: MIC50 (50%)) was 2 µg/mL (≈ 1.38 µM) and the MIC80 ([13]; read-out: MIC80 (80%)) was 4 µg/mL (≈ 2.76 µM). The MIC ([14]; read-out: 100% inhibition) was 1 µg/mL (≈ 0.69 µM), the MIC50 ([14]; read-out: MIC50 (50%)) was 0.5 µg/mL (≈ 0.345 µM) and the MIC80 ([14]; read-out: MIC80 (80%)) was 1 µg/mL (≈ 0.69 µM). The MIC ([15]; NRS382, read-out: 100% inhibition) was 1 µg/mL (≈ 0.69 µM), the MIC50 ([15]; NRS382, read-out: MIC50 (50%)) was 1 µg/mL (≈ 0.69 µM) and the MIC80 ([15]; NRS382, read-out: MIC80 (80%)) was 1 µg/mL (≈ 0.69 µM). The MIC ([16]; NRS383, read-out: 100% inhibition) was 0.5 µg/mL (≈ 0.345 µM), the MIC50 ([16]; NRS383, read-out: MIC50 (50%)) was 0.5 µg/mL (≈ 0.345 µM) and the MIC80 ([16]; NRS383, read-out: MIC80 (80%)) was 0.5 µg/mL (≈ 0.345 µM). The MIC ([17]; NRS384, read-out: 100% inhibition) was 1 µg/mL (≈ 0.69 µM), the MIC50 ([17]; NRS384, read-out: MIC50 (50%)) was 1 µg/mL (≈ 0.69 µM) and the MIC80 ([17]; NRS384, read-out: MIC80 (80%)) was 1 µg/mL (≈ 0.69 µM). For the same compound, the MIC ([18]; NRS122, read-out: 100% inhibition) was 2 µg/mL (≈ 1.38 µM), the MIC50 ([18]; NRS122, read-out: MIC50 (50%)) was 1 µg/mL (≈ 0.69 µM) and the MIC80 ([18]; NRS122, read-out: MIC80 (80%)) was 1 µg/mL (≈ 0.69 µM). For the same compound, the MIC ([19]; NRS7, read-out: 100% inhibition) was 4 µg/mL (≈ 2.76 µM), the MIC50 ([19]; NRS7, read-out: MIC50 (50%)) was 2 µg/mL (≈ 1.38 µM) and the MIC80 ([19]; NRS7, read-out: MIC80 (80%)) was 4 µg/mL (≈ 2.76 µM).
